The results in this text go back to PubChem BioAssay AID328 (DTP/NCI, 2004).

The assay deals with BDF1 mice, P388 leukemia ip, median survival T/C. Put plainly: NCI In Vivo Anticancer Drug Screen. Data for tumor model P388 Leukemia (intraperitoneal) in B6D2F1 (BDF1) mice. The following applies: endpoint: median survival time, higher = longer survival. The essentials: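 Transplantable tumour in mice; compound vs vehicle dosing; survival scored; ratio of treated to control reported.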

Where [1] appears, read: dose: 100.0 mg/kg/injection, schedule: Q01DX009 (ip), vehicle: Klucel (hydroxypropylcellulose) (HPC).
The mark [2] stands for this setting: dose: 100.0 mg/kg/injection, schedule: Q04DX003 (ip), vehicle: Klucel (hydroxypropylcellulose) (HPC).
The mark [3] stands for this setting: dose: 200.0 mg/kg/injection, schedule: Q01DX009 (ip), vehicle: Klucel (hydroxypropylcellulose) (HPC).
[4] abbreviates: dose: 200.0 mg/kg/injection, schedule: Q04DX003 (ip), vehicle: Klucel (hydroxypropylcellulose) (HPC).
Where [5] appears, read: dose: 400.0 mg/kg/injection, schedule: Q01DX009 (ip), vehicle: Klucel (hydroxypropylcellulose) (HPC).
Where [6] appears, read: dose: 400.0 mg/kg/injection, schedule: Q04DX003 (ip), vehicle: Klucel (hydroxypropylcellulose) (HPC).
Setting [7] is: dose: 50.0 mg/kg/injection, schedule: Q01DX009 (ip), vehicle: saline with Tween-80.
The mark [8] stands for this setting: dose: 100.0 mg/kg/injection, schedule: Q01DX009 (ip), vehicle: saline with Tween-80.
The mark [9] stands for this setting: dose: 200.0 mg/kg/injection, schedule: Q01DX009 (ip), vehicle: saline with Tween-80.

Several values for one entry are separate records, joined by “and”; a condition that tells them apart may be missing. Equal values may be shown once. Toxic doses and inconclusive results are not listed. Positions of bridges follow the written chain, without caps; N, C: chain ends. Non-standard residues stand in square brackets, D forms with d. Residues, ends and D or L forms follow the SMILES beside them. Aib = CC(C)(N)C(=O)O

Consider `CC(C)CC1NC(=O)CNC(=O)C(C)(C)NC(=O)C(C(C)C)NC(=O)C(C)(C)NC(=O)C(CCC(N)=O)NC(=O)C(C)NC(=O)C(C)(C)NC(=O)C(C)NC(=O)C(C)(C)NC(=O)C2CCCN2C(=O)CCC(C(=O)NC(CCC(N)=O)C(=O)O)NC(=O)C(C)(C)NC(=O)C(C)(C)NC(=O)C(C(C)C)NC(=O)C2CCCN2C(=O)C(C)(C)NC1=O` (configuration not stated) (P[Aib]A[Aib]AQ[Aib]V[Aib]GL[Aib]PV[Aib][Aib]EQ-OH; lactam N-17; configuration not given here), for which the T/C is, setting by setting: (dose: 1.25 mg/kg/injection, schedule: Q01DX009 (ip), vehicle: water) 118 % of control; (dose: 2.5 mg/kg/injection, schedule: Q01DX009 (ip), vehicle: water) 102 % of control.

Regarding `Cc1ccc2c(c1)=N/C(=N\c1nc(O)c(O)[nH]1)N=2`, the T/C reads like this: (dose: 60.0 mg/kg/injection, schedule: Q01DX009 (ip), vehicle: Klucel (hydroxypropylcellulose) (HPC)) 98 % of control; (dose: 66.0 mg/kg/injection, schedule: Q01DX009 (ip), vehicle: Klucel (hydroxypropylcellulose) (HPC)) 106 % of control; under setting [1], 103 % of control and 118 % of control; under setting [2], 104 % of control; (dose: 140.0 mg/kg/injection, schedule: Q01DX009 (ip), vehicle: Klucel (hydroxypropylcellulose) (HPC)) 97 % of control; (dose: 150.0 mg/kg/injection, schedule: Q01DX009 (ip), vehicle: Klucel (hydroxypropylcellulose) (HPC)) 168 % of control. Moreover, the T/C is 116 % of control under setting [3], 100 % of control under setting [4], 111 % of control under setting [5] and 95 % of control under setting [6].

As to `CC(=O)OC1CC2CCCCC21` (configuration not stated), the T/C by setting is: (dose: 50.0 mg/kg/injection, schedule: Q01DX009 (ip), vehicle: other) 116 % of control; (dose: 100.0 mg/kg/injection, schedule: Q01DX009 (ip), vehicle: other) 105 % of control; (dose: 200.0 mg/kg/injection, schedule: Q01DX009 (ip), vehicle: other) 100 % of control.

Regarding `O=C(O)CC[n+]1c(/C=C/c2cc(Br)c(O)c(Br)c2)sc2ccccc21`, the T/C is 100 % of control (dose: 50.0 mg/kg/injection, schedule: Q04DX003 (ip), vehicle: saline sonified); 100 % of control (dose: 100.0 mg/kg/injection, schedule: Q04DX003 (ip), vehicle: saline sonified); 100 % of control (dose: 200.0 mg/kg/injection, schedule: Q04DX003 (ip), vehicle: saline sonified).

Turning to `CCCP(CCC)c1ccccc1`, the T/C was 108 % of control (dose: 25.0 mg/kg/injection, schedule: Q01DX009 (sc), vehicle: olive oil, sesame oil, peanut oil); 95 % of control (dose: 50.0 mg/kg/injection, schedule: Q01DX009 (sc), vehicle: olive oil, sesame oil, peanut oil); 95 % of control (dose: 100.0 mg/kg/injection, schedule: Q01DX009 (sc), vehicle: olive oil, sesame oil, peanut oil); 96 % of control (dose: 100.0 mg/kg/injection, schedule: Q04DX003 (sc), vehicle: olive oil, sesame oil, peanut oil); 96 % of control (dose: 200.0 mg/kg/injection, schedule: Q04DX003 (sc), vehicle: olive oil, sesame oil, peanut oil); 92 % of control (dose: 400.0 mg/kg/injection, schedule: Q01DX009 (sc), vehicle: olive oil, sesame oil, peanut oil). Also, the T/C (dose: 400.0 mg/kg/injection, schedule: Q04DX003 (sc), vehicle: olive oil, sesame oil, peanut oil) is 123 % of control.

For the compound `OC(CNc1ccc(Cl)c(Cl)c1)COc1ccc(Cl)cc1Cl` (configuration not stated), the T/C is 101 % of control under setting [7], 101 % of control under setting [8] and 104 % of control under setting [9].

Regarding `C(CCC1CO1)CC1CO1` (configuration not stated), the T/C runs as follows: (dose: 50.0 mg/kg/injection, schedule: Q04DX005 (ip), vehicle: saline with Tween-80) 115 % of control; (dose: 200.0 mg/kg/injection, schedule: Q04DX002 (ip), vehicle: saline with Tween-80) 173 % of control.

As for `C=CC(OC)OC`, the T/C reads like this: (dose: 6.25 mg/kg/injection, schedule: Q04DX003 (ip), vehicle: saline) 95 % of control; (dose: 12.5 mg/kg/injection, schedule: Q04DX003 (ip), vehicle: saline) 100 % of control; (dose: 25.0 mg/kg/injection, schedule: Q04DX003 (ip), vehicle: saline) 104 % of control.

With `NC(=O)Oc1cccc(OC(N)=O)c1`, the T/C by setting is: (dose: 12.5 mg/kg/injection, schedule: Q04DX003 (ip), vehicle: water) 106 % of control; (dose: 25.0 mg/kg/injection, schedule: Q04DX003 (ip), vehicle: water) 106 % of control; (dose: 50.0 mg/kg/injection, schedule: Q04DX003 (ip), vehicle: water) 111 % of control; (dose: 100.0 mg/kg/injection, schedule: Q04DX003 (ip), vehicle: water) 106 % of control.

On to `O=C(O)CC(SC(CC(=O)O)C(F)(F)C(F)(F)C(F)(F)F)C(F)(F)C(F)(F)C(F)(F)F` (configuration not stated), for which the T/C is, setting by setting: (dose: 25.0 mg/kg/injection, schedule: Q01DX009 (ip), vehicle: saline with Tween-80) 100 % of control; under setting [7], 110 % of control; under setting [8], 110 % of control.

With `CCCCCCCCCCC(=O)N1CCOCC1`, the T/C was 100 % of control (dose: 25.0 mg/kg/injection, schedule: Q04DX003 (ip), vehicle: saline with Tween-80) and 104 % of control (dose: 50.0 mg/kg/injection, schedule: Q04DX003 (ip), vehicle: saline with Tween-80).

For the compound `COC(=O)C/C(=C\c1ccc(OC)c(OC)c1)C(=O)OC`, the T/C under setting [1] is 109 % of control; the T/C under setting [2] was 104 % of control; the T/C under setting [3] is 113 % of control; the T/C under setting [4] was 100 % of control; the T/C under setting [5] is 100 % of control; the T/C under setting [6] is 100 % of control.

Turning to `N=[N+]=CC(=O)CC(N)C(=O)O` (configuration not stated), the T/C was 95 % of control (dose: 100.0 mg/kg/injection, schedule: Q01DX001 (ip), vehicle: saline sonified); 86 % of control (dose: 200.0 mg/kg/injection, schedule: Q01DX001 (ip), vehicle: saline sonified); 95 % of control (dose: 400.0 mg/kg/injection, schedule: Q01DX001 (ip), vehicle: saline sonified).

With `CC(=O)NC(C(=O)N/N=C(\C)c1ccccc1)C(=O)N/N=C(\C)c1ccccc1`, the T/C reads like this: under setting [7], 98 % of control; under setting [8], 101 % of control; under setting [9], 89 % of control.

Consider `O=C1NNC2CCCCC2O1` (configuration not stated), for which the T/C is 94 % of control under setting [7] and 90 % of control under setting [8].

For `COC(=O)c1ccc(C(=O)OC)c(=O)[nH]1`, the T/C reads like this: under setting [1], 100 % of control; under setting [2], 104 % of control; under setting [3], 95 % of control; under setting [4], 104 % of control; under setting [5], 91 % of control; under setting [6], 104 % of control.

In the case of `COc1ccc2c3csc4ccccc4c-3nc2c1`, the T/C reads like this: (dose: 12.5 mg/kg/injection, schedule: Q01DX009 (ip), vehicle: Klucel (hydroxypropylcellulose) (HPC)) 109 % of control; (dose: 25.0 mg/kg/injection, schedule: Q01DX009 (ip), vehicle: Klucel (hydroxypropylcellulose) (HPC)) 109 % of control; (dose: 25.0 mg/kg/injection, schedule: Q04DX003 (ip), vehicle: Klucel (hydroxypropylcellulose) (HPC)) 100 % of control and 122 % of control; (dose: 50.0 mg/kg/injection, schedule: Q04DX003 (ip), vehicle: Klucel (hydroxypropylcellulose) (HPC)) 109 % of control; (dose: 75.0 mg/kg/injection, schedule: Q01DX001 (ip), vehicle: Klucel (hydroxypropylcellulose) (HPC)) 112 % of control; under setting [2], 104 % of control and 105 % of control. Besides, the T/C (dose: 150.0 mg/kg/injection, schedule: Q01DX001 (ip), vehicle: Klucel (hydroxypropylcellulose) (HPC)) is 100 % of control.

Consider `Cn1ncc(=O)c(Cl)c1S`, for which the T/C by setting is: (dose: 50.0 mg/kg/injection, schedule: Q01DX005 (ip), vehicle: saline with Tween-80) 97 % of control; (dose: 100.0 mg/kg/injection, schedule: Q01DX005 (ip), vehicle: saline with Tween-80) 93 % of control; (dose: 200.0 mg/kg/injection, schedule: Q01DX005 (ip), vehicle: saline with Tween-80) 99 % of control.
